Results from ChEMBL document CHEMBL1201862, “PubChem BioAssay data set” (2004).
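Grown in 96-well plates, cells were treated for 48 hours with each compound at five concentrations. Insufficient inhibition: endpoint recorded as highest concentration tested. The concentration for 50% growth inhibition is given as GI50.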 Active and inactive are the calls of the source. No stated cut-off is given here; in the data, active = GI50 up to about 1.1 µM and inactive = higher.

Key:
Experiment in all cases: inhibition of tumour cell growth, NCI panel, 48 h
CCRF-CEM = system: CCRF-CEM
DU-145 = system: DU-145
HOP-92 = system: HOP-92
Hs-578T = system: Hs-578T
MDA-N = system: MDA-N
Malme-3M = system: Malme-3M
NCI-H23 = system: NCI-H23
NCI/ADR-RES = system: NCI/ADR-RES
OVCAR-4 = system: OVCAR-4
PC-3 = system: PC-3
SF-295 = system: SF-295
SK-MEL-2 = system: SK-MEL-2
SNB-19 = system: SNB-19
SNB-75 = system: SNB-75
T47D = system: T47D
UACC-62 = system: UACC-62
CAKI-1 = system: CAKI-1
HL-60 = system: HL-60
K562 = system: K562
SF-539 = system: SF-539

Structure (SMILES)	GI50 (CCRF-CEM)	GI50 (DU-145)	GI50 (HOP-92)	GI50 (Hs-578T)	GI50 (MDA-N)	GI50 (Malme-3M)	GI50 (NCI-H23)	GI50 (NCI/ADR-RES)	GI50 (OVCAR-4)	GI50 (PC-3)	GI50 (SF-295)	GI50 (SK-MEL-2)	GI50 (SNB-19)	GI50 (SNB-75)	GI50 (T47D)	GI50 (UACC-62)	GI50 (CAKI-1)	GI50 (HL-60)	GI50 (K562)	GI50 (SF-539)
S=C(Nc1ccc2c(c1)oc1ccccc12)c1cccnc1	> 100 µM (inactive)	> 100 µM (inactive)	25.3 µM (inactive)	> 10 µM (inactive)	> 100 µM (inactive)	> 100 µM (inactive)	24.5 µM (inactive)	25.1 µM (inactive)	33.7 µM (inactive)	55.3 µM (inactive)	29.9 µM (inactive)	30.5 µM (inactive)	21.3 µM (inactive)	21.2 µM (inactive)	30.5 µM (inactive)	39.5 µM (inactive)				
CC(=O)O[C@@H]1[C@H](OC2CCCCC2(c2ccccc2)c2ccccc2)O[N+]([O-])=CC12CCCCC2 (stereo not given in full)	0.17 µM (active)	18.1 µM (inactive)	24.5 µM (inactive)	19.2 µM (inactive)	20.2 µM (inactive)		10.2 µM (inactive)	15.9 µM (inactive)		10.8 µM (inactive)	15.7 µM (inactive)			15.9 µM (inactive)	18.4 µM (inactive)	17.7 µM (inactive)	14.4 µM (inactive)	< 0.01 µM (active)	54.2 µM (inactive)	20 µM (inactive)
Nc1nnc2oc3ccc4ccccc4c3cc1-2	24.5 µM (inactive)	56.5 µM (inactive)	26.2 µM (inactive)	54.5 µM (inactive)	34 µM (inactive)	23 µM (inactive)	42.8 µM (inactive)	30.9 µM (inactive)	30.8 µM (inactive)	32.7 µM (inactive)	26.4 µM (inactive)	27.7 µM (inactive)	51.8 µM (inactive)	21.4 µM (inactive)	11.4 µM (inactive)	29 µM (inactive)	48.8 µM (inactive)	21.9 µM (inactive)	37.5 µM (inactive)	
CCOC(=O)c1cc2cc(CSc3ccccc3)ccc2oc1=O	> 100 µM (inactive)	89.1 µM (inactive)	> 100 µM (inactive)	52.1 µM (inactive)	> 100 µM (inactive)	> 100 µM (inactive)	> 100 µM (inactive)	> 100 µM (inactive)	> 100 µM (inactive)	91.6 µM (inactive)	43.4 µM (inactive)	92.5 µM (inactive)	46.8 µM (inactive)	38.4 µM (inactive)	> 100 µM (inactive)	45.9 µM (inactive)	> 100 µM (inactive)		82.2 µM (inactive)	91.8 µM (inactive)
Cc1ccc([N+](=O)[O-])cc1NC1=NCCO1	> 100 µM (inactive)	> 100 µM (inactive)		> 100 µM (inactive)	> 100 µM (inactive)	> 100 µM (inactive)	> 100 µM (inactive)	> 100 µM (inactive)	> 100 µM (inactive)	> 100 µM (inactive)	> 100 µM (inactive)	> 100 µM (inactive)	> 100 µM (inactive)	> 100 µM (inactive)	> 100 µM (inactive)	> 100 µM (inactive)	> 100 µM (inactive)	> 100 µM (inactive)	> 100 µM (inactive)	> 100 µM (inactive)
CN(Cc1nc2c(N)nc(N)nc2nc1N)c1ccc(C(=O)NC(CCC(=O)O)C(=O)O)cc1 (stereo not given)	< 0.01 µM (active)	0.254 µM (active)	> 100 µM (inactive)	> 19.8 µM (inactive)	0.0442 µM (active)		0.544 µM (active)	0.225 µM (active)	> 100 µM (inactive)	< 0.01 µM (active)	0.162 µM (active)	> 100 µM (inactive)	64.6 µM (inactive)	7.45 µM (inactive)	> 100 µM (inactive)	0.0603 µM (active)	0.0322 µM (active)	< 0.01 µM (active)		0.0378 µM (active)
CCOC(=O)C1=C(C)NC(c2ccccc2)=C(C(=O)OCc2ccccc2)C1C#Cc1ccccc1 (stereo not given)	> 100 µM (inactive)	> 100 µM (inactive)		> 100 µM (inactive)	0.274 µM (active)	> 100 µM (inactive)	> 100 µM (inactive)	> 100 µM (inactive)		> 100 µM (inactive)	> 100 µM (inactive)	> 100 µM (inactive)	> 100 µM (inactive)	> 100 µM (inactive)	> 100 µM (inactive)	> 100 µM (inactive)	0.0675 µM (active)	> 100 µM (inactive)	> 100 µM (inactive)	> 100 µM (inactive)
Clc1c(Cl)c(Cl)c2c(nnn2C2CCCO2)c1Cl (stereo not given)	26.4 µM (inactive)	51.5 µM (inactive)		25.8 µM (inactive)	27.7 µM (inactive)	31.3 µM (inactive)	19.6 µM (inactive)	31.7 µM (inactive)	18.9 µM (inactive)	39.2 µM (inactive)	36.9 µM (inactive)	26.5 µM (inactive)		12.9 µM (inactive)	50.9 µM (inactive)	44.4 µM (inactive)	31.9 µM (inactive)	5.79 µM (inactive)	24.3 µM (inactive)	30.7 µM (inactive)
CCN(CC)/C(Sc1ccccc1)=C(\C(Cl)=C(Cl)Cl)[N+](=O)[O-]	4.99 µM (inactive)	16.9 µM (inactive)	14.2 µM (inactive)	20.7 µM (inactive)	16.9 µM (inactive)	18 µM (inactive)	13.7 µM (inactive)	24.9 µM (inactive)	33.7 µM (inactive)	17.2 µM (inactive)	17.6 µM (inactive)		20.6 µM (inactive)	20.4 µM (inactive)	17.8 µM (inactive)	14.6 µM (inactive)	13 µM (inactive)	1.81 µM (inactive)	10.8 µM (inactive)	17.3 µM (inactive)
CC(C)C[C@H]1[C@@H](OCc2ccccc2)COS(=O)N1[C@H](C)c1ccccc1 (stereo not given in full)	13.3 µM (inactive)	37.8 µM (inactive)	18.9 µM (inactive)	12 µM (inactive)	24.9 µM (inactive)	12.7 µM (inactive)	26.1 µM (inactive)	18.7 µM (inactive)		5.79 µM (inactive)	4 µM (inactive)	15.7 µM (inactive)	30.3 µM (inactive)	15.6 µM (inactive)	9.55 µM (inactive)	35.1 µM (inactive)	20.2 µM (inactive)	8.15 µM (inactive)	5.51 µM (inactive)	
O=C(NCc1cccs1)OC1CC2CCC1C2 (stereo not given)	> 100 µM (inactive)	> 100 µM (inactive)	> 100 µM (inactive)	81.5 µM (inactive)	> 100 µM (inactive)	> 100 µM (inactive)	> 100 µM (inactive)	> 100 µM (inactive)	> 100 µM (inactive)	> 100 µM (inactive)	> 100 µM (inactive)	> 100 µM (inactive)	> 100 µM (inactive)		> 100 µM (inactive)	> 100 µM (inactive)	> 100 µM (inactive)	> 100 µM (inactive)	> 100 µM (inactive)	> 100 µM (inactive)
NC1CSc2ccccc2NC1=O (stereo not given)	> 100 µM (inactive)	> 100 µM (inactive)		> 100 µM (inactive)	> 100 µM (inactive)	> 100 µM (inactive)	> 100 µM (inactive)	> 100 µM (inactive)	> 100 µM (inactive)	> 100 µM (inactive)	> 100 µM (inactive)	> 100 µM (inactive)	> 100 µM (inactive)	> 100 µM (inactive)	> 100 µM (inactive)	> 100 µM (inactive)	> 100 µM (inactive)	> 100 µM (inactive)	> 100 µM (inactive)	> 100 µM (inactive)
Cc1ccc(C(=O)Nc2ccc(CP(=O)(O)O)cc2CP(=O)(O)O)cc1NC(=O)Nc1cc(C(=O)Nc2ccc(CP(=O)(O)O)cc2CP(=O)(O)O)ccc1C	> 100 µM (inactive)	> 100 µM (inactive)		> 100 µM (inactive)	> 100 µM (inactive)	> 100 µM (inactive)	> 100 µM (inactive)	> 100 µM (inactive)	> 100 µM (inactive)	> 100 µM (inactive)	> 100 µM (inactive)	> 100 µM (inactive)	> 100 µM (inactive)	> 100 µM (inactive)	> 100 µM (inactive)	> 100 µM (inactive)	> 100 µM (inactive)	> 100 µM (inactive)	> 100 µM (inactive)	> 100 µM (inactive)
C=CC(O)C#Cc1cnc(OC)nc1OC (stereo not given)	17.1 µM (inactive)	> 100 µM (inactive)	> 100 µM (inactive)	> 100 µM (inactive)	> 100 µM (inactive)		> 100 µM (inactive)	> 100 µM (inactive)	> 100 µM (inactive)	> 100 µM (inactive)	> 100 µM (inactive)	> 100 µM (inactive)	> 100 µM (inactive)	65.8 µM (inactive)	> 100 µM (inactive)	> 100 µM (inactive)	35.1 µM (inactive)	17.2 µM (inactive)	23.9 µM (inactive)	> 100 µM (inactive)
Cc1cn(CCOCCOC(=O)NC(CCCNC(N)=O)C(=O)O)c(=O)[nH]c1=O (stereo not given)	> 100 µM (inactive)	> 100 µM (inactive)	> 100 µM (inactive)	> 100 µM (inactive)	> 100 µM (inactive)		> 100 µM (inactive)	> 100 µM (inactive)	> 100 µM (inactive)	> 100 µM (inactive)	> 100 µM (inactive)	> 100 µM (inactive)	> 100 µM (inactive)	> 100 µM (inactive)	> 100 µM (inactive)	> 100 µM (inactive)	> 100 µM (inactive)	> 100 µM (inactive)	> 100 µM (inactive)	> 100 µM (inactive)
